Laboratory results reported in article PMC3898838, “Design, Synthesis, and Biological Evaluation of an Allosteric Inhibitor of HSET that Targets Cancer Cells with Supernumerary Centrosomes” (Chemistry & Biology, 2013).

Legend:
[1] = biological target: T1, full-length, N-terminal, 6His-tagged human HSET (Homo sapiens, UniProt Q9BW19); assay: In vitro enzymatic ATPase assay (ADP-Glo), MT-stimulated activity; type: biochemical
T1 construct: The protocol was optimized for use with full-length, N-terminal, 6His-tagged HSET and KSP; made in house; host or cells: Sf9 insect cells (baculovirus, pFastBac1)
T1 sequence (Q9BW19 1-673): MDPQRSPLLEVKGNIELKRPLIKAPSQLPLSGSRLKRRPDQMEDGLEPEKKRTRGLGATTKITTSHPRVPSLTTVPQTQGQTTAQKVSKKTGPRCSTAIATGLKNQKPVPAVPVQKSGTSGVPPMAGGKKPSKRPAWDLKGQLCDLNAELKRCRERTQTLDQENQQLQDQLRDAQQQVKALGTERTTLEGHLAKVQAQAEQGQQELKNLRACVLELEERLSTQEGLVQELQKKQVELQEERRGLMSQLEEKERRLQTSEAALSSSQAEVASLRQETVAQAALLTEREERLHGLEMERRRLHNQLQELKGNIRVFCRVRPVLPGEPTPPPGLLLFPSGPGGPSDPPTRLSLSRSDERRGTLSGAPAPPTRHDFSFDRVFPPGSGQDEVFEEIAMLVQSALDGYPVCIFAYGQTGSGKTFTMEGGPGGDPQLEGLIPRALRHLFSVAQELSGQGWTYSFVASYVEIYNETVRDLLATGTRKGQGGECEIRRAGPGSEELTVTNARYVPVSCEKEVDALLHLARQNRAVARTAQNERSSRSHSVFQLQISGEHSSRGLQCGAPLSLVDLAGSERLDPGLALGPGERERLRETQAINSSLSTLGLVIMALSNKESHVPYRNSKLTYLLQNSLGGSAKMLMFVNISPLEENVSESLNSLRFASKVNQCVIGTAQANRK
Source text: The similarity decreases to 56% in the loop 5 binding cleft alone (residues 422–432; Figure 1A). Given the high degree of similarity between the proteins, and the potential for selective binding in the loop 5 cleft, the chemogenomics principle that similar proteins bind similar ligands was applied to HSET and KSP, and an in silico model for HSET binding was developed based on nearly 500 existing inhibitors of KSP in the ChEMBL database (see Experimental Procedures for details; [Klabunde, 2007]). Using the model parameters, we selected 200 compounds (in silico) from 20 million possibilities and further triaged them into 50 ligands that scored highest in the bioactivity model. We acquired and tested these ligands for in vitro activity using an ADP-Glo enzymatic assay (see Experimental Procedures for details; Figure 1B).
The protocol was optimized for use with full-length, N-terminal, 6His-tagged HSET and KSP, and measured the MT-stimulated activity of the proteins. Inhibition of the […] of HSET/KSP was observed spectrophotometrically by coupling the hydrolysis of ATP to oxidation of NADH via pyruvate kinase/lactate dehydrogenase reactions. The assay was initiated by […] an assay mixture containing the following components (final concentration): 6 nM protein, 0.07 mg/ml MTs (University Biologicals), […], 2 mM ATP, 2.7 mM MgCI, 1 mM phospho(enol)-pyruvate, 0.2 mM NADH, 50 μg/ml lactate dehydrogenase, 100 μg/ml pyruvate kinase, and various concentrations of inhibitor all in 50 mM Na PIPES (pH 6.8) at 37°C. The ADP-Glo detection assay (Promega) was performed as described in the manufacturer’s instructions. All compound additions were performed using a multidrop BioMek Nxp (Beckman Coulter). Plates were read using a Pherastar microplate reader (BMG Labtech).

N1E-115 cells = assay: Time-lapse microscopy, mitotic fate; type: cell-based, mouse
Description: Therefore, we interrogated cell division in N1E-115 cells using time-lapse imaging for further validation of target engagement. Treatment with 200 μM CW069 did indeed induce multipolar anaphase formation in N1E-115 cells (48%; Figure 5A) compared with the DMSO control (0%; Figure 5A). […] This is consistent with a previous report that catastrophic aneuploidy associated with multipolar divisions prompted cell death ([Kwon et al., 2008]). In order to corroborate selective inhibition of HSET by CW069 in cells, we treated HSET siRNA-depleted cells with 200 μM CW069 and compared them with DMSO/control siRNA-, DMSO/HSET siRNA-, and CW069/control siRNA-treated cells (Figure 5D).
(§1) Cells were synchronized in G2-M by incubation at 37°C and 5% CO2 for 24 hr with 9 μM of the CDK1 inhibitor RO-3306 (Merck). Cells were released by removal of the RO-3306 and four washings of 10 min each, at 37°C, with prewarmed culture media + 10% FBS. N1E-115 cells were transfected with siRNA (Supplemental Experimental Procedures) and imaged from 6 hr after transfection. Some RO-3306-synchronized cells were released with 200 μM CW069, 100 μM monastrol, or 0.2% DMSO, and imaging started immediately or 1 hr after treatment. Imaging was carried out for 24 hr, or for 4 hr in the case of the CW069/monastrol cotreatment. Imaging was conducted every 5 min in a humidified chamber with 37°C and 5% CO2, using a Nikon Eclipse TE2000-E microscope, and analyzed with NIS-Elements software (Nikon, Tokyo, Japan). The morphology of cells in mitosis and the mitotic fate (bipolar division, multipolar division, or cell death) were analyzed.

NHDF cells = assay: Time-lapse microscopy, mitotic fate; type: cell-based, human; conditions: 200 μM
Description: as §1

SMILES: O=C(O)c1cc(I)ccc1NC(=O)[C@H](Cc1ccccc1)NCc1ccccc1 [CW069]
- IC50 ([1]; concentrations up to 250 μM, mean ± SD): 75 ± 20 µM
- selectivity for HSET over KSP ([1]; from IC50 values, HSET vs KSP): ~4 fold
- fate of daughter cells after aberrant divisions (N1E-115 cells; N1E-115, 200 μM): the majority of daughter cells underwent apoptosis
- multipolar anaphase formation (N1E-115 cells; N1E-115, 200 μM CW069, DMSO control 0% (Figure 5A)): 48%
- multipolar anaphases (N1E-115 cells; N1E-115, siRNA plus 200 μM CW069 or DMSO, DMSO/control siRNA 11% (Figure 5D)): 57%
- multipolar anaphase formation (NHDF cells): No similar increase in multipolar anaphase formation
